From patent EP1673354B1, “ARYLINDENOPYRIDINES AND ARYLINDENOPYRIMIDINES AND THEIR USE AS ADENOSINE A2A RECEPTOR ANTAGONISTS” (Ortho-McNeil Pharmaceutical, Inc., priority 2003, dated 2005)

Assays:
C57bl/6 mice = assay: Haloperidol-induced catalepsy study in C57bl/6 mice; type: in vivo; conditions: orally dosed at 10 mg/kg; haloperidol 1.5 mg/kg s.c.; test 1 hour after oral dose
Protocol: Haloperidol-induced catalepsy study in C57bl/6 mice
Mature male C57bl/6 mice (9-12 week old from ACE) were housed two per cage in a rodent room. Room temperature was maintained at 64-79 degrees and humidity at 30-70% and room lighting at 12 hrs light/12 hrs dark cycle. On the study day, mice were transferred to the study room. The mice were injected subcutaneously with haloperidol (Sigma H1512, 1.0 mg/ml made in 0.3% tartaric acid, then diluted to 0.2 mg/ml with saline) or vehicle at 1.5 mg/kg, 7.5ml/kg. The mice were then placed in their home cages with access to water and food. 30 minutes later, the mice were orally dosed with vehicle (0.3% Tween 80 in saline) or compounds at 10 mg/kg, 10 ml/kg (compounds, 1mg/ml, made in 0.3% Tween 80 in saline, sonicated to obtain a uniform suspension). The mice were then placed in their home cages with access to water and food. 1 hour after oral dose, the catalepsy test was performed. A vertical metal-wire grid (1.0 cm squares) was used for the test. The mice were placed on the grid and given a few seconds to settle down and their immobility time was recorded until the mice moved their back paw(s). The mice were removed gently from the grid and put back on the grid and their immobility time was counted again. The measurement was repeated three times. The average of three measurements was used for data analysis.

Adenosine A1 receptor = molecular target: T1, Adenosine A1 receptor (Homo sapiens, UniProt P30542); assay: A1 antagonist function (no method described); type: cell-based
T1 sequence (P30542 1-326): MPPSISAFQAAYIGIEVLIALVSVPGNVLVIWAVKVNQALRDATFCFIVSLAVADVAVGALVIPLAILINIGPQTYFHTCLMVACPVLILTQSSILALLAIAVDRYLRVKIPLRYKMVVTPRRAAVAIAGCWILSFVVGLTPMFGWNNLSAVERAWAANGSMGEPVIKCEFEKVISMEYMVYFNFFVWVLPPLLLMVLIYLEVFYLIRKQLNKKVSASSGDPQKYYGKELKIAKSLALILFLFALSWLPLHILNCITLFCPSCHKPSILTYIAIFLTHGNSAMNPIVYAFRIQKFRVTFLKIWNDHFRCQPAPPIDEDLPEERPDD

[1] = molecular target: T2, human adenosine A2a receptors (Homo sapiens, UniProt P29274); assay: Adenosine A2a receptor functional assay, antagonist mode (cAMP-inducible beta-galactosidase reporter, 50 nM NECA); type: cell-based; conditions: CHO-K1 cells, read-out: Ki (nM) A2a antagonist function
T2 construct: expressed in transfected cells; host or cells: CHO-K1 cells with cAMP-inducible beta-galactosidase reporter gene
T2 sequence (P29274 whole entry): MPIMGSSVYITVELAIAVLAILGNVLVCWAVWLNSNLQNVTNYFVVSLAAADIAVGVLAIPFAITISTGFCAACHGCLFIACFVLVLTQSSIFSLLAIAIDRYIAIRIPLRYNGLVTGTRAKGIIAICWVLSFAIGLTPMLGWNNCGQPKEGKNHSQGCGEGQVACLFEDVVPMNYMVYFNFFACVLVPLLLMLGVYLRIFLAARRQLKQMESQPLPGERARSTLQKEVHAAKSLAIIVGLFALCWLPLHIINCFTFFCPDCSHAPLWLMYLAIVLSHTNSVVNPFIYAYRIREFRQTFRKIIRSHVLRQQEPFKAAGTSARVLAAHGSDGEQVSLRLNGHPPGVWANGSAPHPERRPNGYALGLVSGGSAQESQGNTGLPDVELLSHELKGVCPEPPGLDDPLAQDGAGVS
Protocol: Adenosine A2a Receptor Functional Assay
CHO-K1 cells overexpressing human adenosine A2a receptors and containing cAMP-inducible beta-galactosidase reporter gene were seeded at 40-50K/well into 96-well tissue culture plates and cultured for two days. On assay day, cells were washed once with 200 µL assay medium (F-12 nutrient mixture/0.1 % BSA). For agonist assay, adenosine A2a receptor agonist NECA was subsequently added and cell incubated at 37°C, 5% CO2 for 5 hrs before stopping reaction. In the case of antagonist assay, cells were incubated with antagonists for 5 minutes at R.T. followed by addition of 50 nM NECA. Cells were then incubated at 37°C, 5% CO2 for 5 hrs before stopping experiments by washing cells with PBS twice. 50 µL 1X lysis buffer (Promega, 5X stock solution, needs to be diluted to 1X before use) was added to each well and plates frozen at -20°C. For β-galactosidase enzyme colorimetric assay, plates were thawed out at room temperature and 50 µL 2X assay buffer (Promega) added to each well. Color was allowed to develop at 37°C for 1 h or until reasonable signal appeared. Reaction was then stopped with 150 µL 1 M sodium carbonate. […] Data was analyzed in Microsoft Excel and GraphPad Prism programs.

[2] = molecular target: T3, human A2a adenosine receptor (Homo sapiens, UniProt P29274); assay: Ligand binding assay for adenosine A2a receptor ([3H]CGS21680, HEK293 plasma membrane); conditions: radioligand [3H]CGS21680, HEK293 membranes, room temperature 2 hours; read-out: Ki (nM) A2a binding
T3 construct: purchased PerkinElmer RB-HA2a; host or cells: HEK293 cell plasma membrane
T3 sequence (P29274 whole entry): as above
Protocol: Ligand Binding Assay for Adenosine A2a Receptor
Ligand binding assay of adenosine A2a receptor was performed using plasma membrane of HEK293 cells containing human A2a adenosine receptor (PerkinElmer, RB-HA2a) and radioligand [^3H]CGS21680 (PerkinElmer, NET1021). Assay was set up in 96-well polypropylene plate in total volume of 200 µl by sequentially adding 20 µL1:20 diluted membrane, 130 µLassay buffer (50 mM Tris·HCl, pH7.4 10 mM MgCl2, 1 mM EDTA) containing [^3H] […] Nonspecific binding was determined by […] NECA. Reaction was carried out at room temperature for 2 hours before filtering through 96-well GF/C filter plate pre-soaked in 50 mM Tris·HCl, pH7.4 containing 0.3% polyethylenimine. Plates were then washed 5 times with cold 50 mM Tris·HCl, pH7.4, dried and sealed at the bottom. Microscintillation fluid 30 µl was added to each well and the top sealed. Plates were counted on Packard Topcount for [^3H]. Data was analyzed in Microsoft Excel and GraphPad Prism programs.

Ki (Adenosine A1 receptor) [nM] | Ki [1] [nM] | Ki [2] [nM] | Compound | inhibition of haloperidol-induced catalepsy (C57bl/6 mice) [%]
107 | 18.3 | 94.4 | CCN(CC)Cc1cccc2c1C(=O)c1c(-c3ccccc3)nc(N)nc1-2 [Compound 52] | –
40.8 | 14.2 | 64.2 | Nc1nc(-c2ccccc2)c2c(n1)-c1cccc(CN3CCCCC3)c1C2=O [Compound 53] | –
19.6 | 3.19 | 40.8 | COC(=O)C1CCCCN1Cc1cccc2c1C(=O)c1c(-c3ccccc3)nc(N)nc1-2 (stereo not drawn) [Compound 54] | –
19.9 | 5.84 | 32.8 | CCOC(=O)C1CCCN(Cc2cccc3c2C(=O)c2c(-c4ccccc4)nc(N)nc2-3)C1 (stereo not drawn) [Compound 55] | –
25.8 | 6.81 | 25.7 | COC(=O)CN(C)Cc1cccc2c1C(=O)c1c(-c3ccccc3)nc(N)nc1-2 [Compound 56] | –
39.3 | 15.9 | 34 | Nc1nc(-c2ccccc2)c2c(n1)-c1cccc(CN3CCCC(CO)C3)c1C2=O (stereo not drawn) [Compound 57] | –
34.1 | 7.94 | 40.8 | CC(=O)N1CCN(Cc2cccc3c2C(=O)c2c(-c4ccccc4)nc(N)nc2-3)CC1 [Compound 59] | –
163 | 245 | 575 | Nc1nc(-c2ccccc2)c2c(c1C(=O)O)-c1ccccc1C2=O [Compound 65] | –
117 | 74.9 | 200 | CN1CCN(CCCOC(=O)c2c(N)nc(-c3ccccc3)c3c2-c2ccccc2C3=O)CC1 [Compound 83] | –
> 300 | 48.9 | 130 | Nc1nc(-c2ccccc2)c2c(c1C(=O)OCCN1CCCC1)-c1ccccc1C2=O [Compound 88] | –
> 300 | 57.7 | 202 | CN1CCCC1COC(=O)c1c(N)nc(-c2ccccc2)c2c1-c1ccccc1C2=O (stereo not drawn) [Compound 90] | –
14.7 | 22.1 | 208 | Nc1nc(-c2ccccc2)c2c(c1C(=O)OCCN1CCOCC1)-c1ccccc1C2=O [Compound 91] | –

The remaining lines, values behind:

Compound | Ki (Adenosine A1 receptor) [nM] | Ki [1] [nM] | Ki [2] [nM] | inhibition of haloperidol-induced catalepsy (C57bl/6 mice) [%]
Nc1nc(-c2ccco2)c2c(n1)-c1ccccc1C2=O [Compound 3, 2-amino-4-furan-2-yl-indeno[1,2-d]pyrimidin-5-one] | 0.288 | – | – | 90
N#Cc1c(N)nc(-c2ccccc2)c2c1-c1ccccc1C2=O [Compound 64] | 4.61 | 0.138 | 13.1 | –
N#Cc1c(N)nc(-c2ccoc2)c2c1-c1ccccc1C2=O [Compound 66] | 15.6 | 0.069 | 4.21 | –
N#Cc1c(N)nc(-c2cccc(F)c2)c2c1-c1ccccc1C2=O [Compound 67] | 4.37 | 0.618 | 13.4 | –
N#Cc1c(N)nc(-c2cccnc2)c2c1-c1ccccc1C2=O [Compound 68] | 34.8 | 0.73 | 7.59 | –
Nc1nc(-c2ccco2)c2c(c1C(=O)O)-c1ccccc1C2=O [Compound 69] | > 1000 | 90.2 | 2260 | –
CN(C)CCOC(=O)c1c(N)nc(-c2ccco2)c2c1-c1ccccc1C2=O [Compound 70, 9H-indeno[2,1-c]pyridine-4-carboxylic acid, 3-amino-1-furan-2-yl-9-oxo-, 2-dimethylamino-ethyl ester] | 20.1 | 0.44 | 9.89 | 87
N#Cc1c(N)nc(-c2ccc(F)cc2)c2c1-c1ccccc1C2=O [Compound 71] | 2.42 | 3.39 | 17.2 | –
N#Cc1c(N)nc(-c2cccs2)c2c1-c1ccccc1C2=O [Compound 72] | 6.24 | 2.54 | 12.6 | –
N#Cc1c(N)nc(-c2ccsc2)c2c1-c1ccccc1C2=O [Compound 73] | 9.7 | 0.06 | 4.92 | –
COc1cccc(-c2nc(N)c(C#N)c3c2C(=O)c2ccccc2-3)c1 [Compound 74] | 7.28 | 5.7 | 14.7 | –
N#Cc1c(N)nc(-c2ncc[nH]2)c2c1-c1ccccc1C2=O [Compound 75] | 78.3 | 1.51 | 23.7 | –
CN(C)CCNC(=O)c1c(N)nc(-c2ccco2)c2c1-c1ccccc1C2=O [Compound 76] | > 500 | 22.1 | 33 | –
N#Cc1c(N)nc(-c2ccco2)c2c1-c1c(F)c(F)c(F)c(F)c1C2=O [Compound 79] | > 1000 | 12.5 | 8.03 | –
CN1CCN(C(=O)c2c(N)nc(-c3ccco3)c3c2-c2ccccc2C3=O)CC1 [Compound 80] | 56 | 15.9 | 69.1 | –
CN(C)CCOC(=O)c1c(N)nc(-c2ccccc2)c2c1-c1ccccc1C2=O [Compound 81, 9H-indeno[2,1-c]pyridine-4-carboxylic acid, 3-amino-1-phenyl-9-oxo-, 2-dimethylamino-ethyl ester] | 33.6 | 29 | 229 | –
CN1CCCC1COC(=O)c1c(N)nc(-c2ccco2)c2c1-c1ccccc1C2=O (stereo not drawn) [Compound 82, 9H-indeno[2,1-c]pyridine-4-carboxylic acid, 3-amino-1-furan-2-yl-9-oxo-, 1-methyl-pyrrolidin-2-ylmethyl ester] | 29.6 | 1.36 | 20.2 | –
Nc1nc(-c2ccccc2)c2c(c1C(=O)OCCCN1CCOCC1)-c1ccccc1C2=O [Compound 84] | 27.4 | 24.7 | 174 | –
CC(C)Cc1nc(N)c(C#N)c2c1C(=O)c1ccccc1-2 [Compound 86] | 39.3 | > 1000 | 244 | –
CN(C)CCCOC(=O)c1c(N)nc(-c2ccccc2)c2c1-c1ccccc1C2=O [Compound 87] | > 300 | 39.5 | 98.9 | –
N#Cc1c(N)nc(-c2ccco2)c2c1-c1ccccc1C2O (stereo not drawn) [Compound 89] | 11.2 | 1.12 | 5.85 | –
CC(COC(=O)c1c(N)nc(-c2ccccc2)c2c1-c1ccccc1C2=O)CN(C)C (stereo not drawn) [Compound 92] | 32.9 | 13.9 | 38.8 | –
CN(C)CCOC(=O)c1c(N)nc(-c2ccsc2)c2c1-c1ccccc1C2=O [Compound 93] | 104 | 23.6 | 64.1 | –
C=CCCc1nc(N)c(C#N)c2c1C(=O)c1ccccc1-2 [Compound 94] | 36 | > 1000 | 49.5 | –
N#Cc1c(N)nc(C2CCCCC2)c2c1-c1ccccc1C2=O [Compound 95] | 110 | > 1000 | 338 | –
CC(CN(C)C)OC(=O)c1c(N)nc(-c2ccco2)c2c1-c1ccccc1C2=O (stereo not drawn) [Compound 96] | 52.5 | 10.1 | 48.5 | –
